Measured values published in paper PMC10482825 (Scientific Reports, 2023).
In brackets after ≈: the same amount, converted by molar mass. Where a SMILES comes first, the peptide text is derived from it.

What was measured:
B. subtilis [1] = type: cell-based, Bacillus subtilis (ATCC, 11774); conditions: micro-broth dilution, 3 h peptide treatment then MHB 18 h, 37 °C, OD 600 nm
Description: (§1) The microbial strains used in this study were Bacillus subtilis (ATCC, 11774), Candida albicans (TIMM, 1768), Enterococcus faecalis (ATCC, 33186), Escherichia coli (ATCC, 11775), Klebsiella pneumoniae (ATCC, 13883), Methicillin-resistant Staphylococcus aureus (ATCC, BAA-41), Pseudomonas aeruginosa (ATCC, 10145), Salmonella enterica (ATCC, 14028), Serratia marcescens (ATCC, 13880), Staphylococcus aureus (ATCC, 25923) and Vibrio parahaemolyticus (ATCC, 17802). All microbial strains were cultivated overnight at 37 °C and 200 rpm, then subcultured and incubated for 3 h under the same incubation conditions to obtain the mid-logarithmic growth phase. The cultivated cells were washed twice with 10 mM Tris–HCl containing 5 mM D-glucose at pH 7.4 and suspended in the same buffer to be used in different assays, as previously described.
(§2) As a conclusive quantitative assessment, broth microtiter assay was used to determine the MIC values of each cryptide against B. subtilis, MRSA, S. enterica, P. aeruginosa, V. parahaemolyticus and C. albicans by following the guidelines of the Clinical and Laboratory Standards Institute (CLSI)[67], with slight modifications. Eighty microliters of 5 × 10^4 CFU/ml of each pathogen were dispensed into a 96-well polypropylene microtiter plate. The wells were then treated with 20 µl of serially diluted cryptides for 3 h at 37 °C. Gentamicin was used for positive controls at 0.2 mg/ml while an equivalent volume of acidified water was used for negative controls. The plates were then topped up with a final concentration of 1 × Mueller Hinton Broth (MHB) and incubated for 18 h under the same incubation conditions. MIC was detected as the lowest concentration of each cryptide that prevents the optically detectable microbial growth at OD = 600 nm.

MRSA [2] = type: cell-based, Methicillin-resistant Staphylococcus aureus (ATCC, BAA-41); conditions: micro-broth dilution, 3 h peptide treatment then MHB 18 h, 37 °C, OD 600 nm
Description: as §1, §2

S. enterica [3] = type: cell-based, Salmonella enterica (ATCC, 14028); conditions: micro-broth dilution, 3 h peptide treatment then MHB 18 h, 37 °C, OD 600 nm
Description: as §1, §2

P. aeruginosa [4] = type: cell-based, Pseudomonas aeruginosa (ATCC, 10145); conditions: micro-broth dilution, 3 h peptide treatment then MHB 18 h, 37 °C, OD 600 nm
Description: as §1, §2

C. albicans [5] = type: cell-based, Candida albicans (TIMM, 1768); conditions: micro-broth dilution, 3 h peptide treatment then MHB 18 h, 37 °C, OD 600 nm
Description: as §1, §2

[6] = tested on: the different tested pathogens; type: cell-based; conditions: span over tested pathogens, undetected values disregarded
Description: as §1, §2

[7] = tested on: S. enterica mature biofilm; experiment: Antibiofilm microtiter plate assay (mature biofilm, crystal violet); type: cell-based, Salmonella enterica (ATCC, 14028); conditions: tested 12.5-200 µM
Procedure: The antibiofilm activities of the selected cryptides against S. enterica and MRSA mature biofilms were examined by microtiter plate assay as previously described, with slight modification. During the mid-logarithmic phase, S. enterica and MRSA were suspended at the density of 1.7 × 10^8 CFU/ml in MHB. Then 100 µl of each bacterial suspension was dispensed into a vinyl 96 U-shaped-well plate and incubated overnight at 37 °C. The mature biofilms were washed with 10 mM Tris–HCl containing 5 mM D-glucose at pH 7.4 and treated for 8 h with 100 µl of two-fold serially diluted cryptides, under the same incubation conditions. A sterile MHB medium was used as the positive control while an equivalent volume of acidified water was used to treat the negative controls. The treated biofilms were washed twice with the same washing buffer and stained with 0.1% crystal violet for 15 min followed by rinsing with sterile distilled water twice and then dried for 30 min at 37 °C. The stain was dissolved with 33% acetic acid and transferred to an optically clear 96-well flat bottom plate which was then measured at 600 nm.
Table S.4 Antibiofilm activities of the selected Cryptides against S. enterica and MRSA. Microbial cells were suspended at 1.7 X 10^8 CFU/ml density, during the mid-logarithmic phase in MHB. Then, 96 U-shaped -well plates were inoculated with 100 µl of microbial suspension and incubated for 48 h at 37 °C. The formed biofilms were washed with 10 mM Tris-HCl and treated with 100 µl of different concentrations of each peptide for 24 h. The treated biomasses were washed and fixed with methanol for 15 min at -20 °C before staining with 0.1 % crystal violet. The stained biofilms were dissolved in 100 µl of 33 % acetic acid and the quantities of crystal violet stains were determined by measuring absorbance at 600 nm as an indicator of the remaining biomass after treatment. Untreated cells were used as negative control [indicating 100 % biofilm integrity] while the sterile medium was used as a positive control [indicating 0 % biofilm integrity].
S. enterica MRSA S. enterica MRSA S. enterica MRSA S. enterica MRSA S. enterica MRSA

Caco-2 = type: cell-based, human; conditions: 24 h, serum-free medium, MTT, 37 °C, 5% CO2; mean ± SD
Procedure: (§3) The used mammalian cell lines in our study were colorectal adenocarcinoma (Caco2, ATCC-HTB-37), colorectal carcinoma (HCT 116, ATCC-CCL-247), lung carcinoma (A549, ATCC- CCL-185), cervical cancer cells (HeLa, ATCC-CCL-2), neuroblastoma (SH-SY5Y, ATCC- CRL-2266), rhabdomyosarcoma (RD, ATCC- CCL-136) and human embryonic kidney cells (HEK 293, ATCC- CRL-1573). All the cells were maintained into Dulbecco’s Modified Eagle’s Medium (DMEM) supplemented with 10% heat-inactivated fetal bovine serum, 2 mM L-Glutamine, 100 U/ml penicillin–streptomycin (Pen/Strep) at 37 °C in 5% CO2 humidified incubator.
(§4) First, the cytotoxic effect of 24 h serum deprivation on all the selected cell lines was evaluated by MTT assay, following standard protocols. Briefly, cells were seeded and maintained at 37 °C and 5% CO2 in 24-well plates until they reached 75–80% confluency (zero time). Following washing twice with 1X PBS, cells were incubated in a serum-free medium for 24 h, under the same incubation conditions. The cell viability percentages were calculated and compared to zero time as 100% viability to nullify any possible effects of serum deprivation. Thence, the cell viability percentage of each cell line in response to 24 h treatment with different concentrations of each cryptide in serum-free medium was calculated. […] All the measured cell viability percentages were normalised against the corresponding negative controls.

HeLa = type: cell-based, human; conditions: 24 h, serum-free medium, MTT, 37 °C, 5% CO2; mean ± SD
Procedure: as §3, §4

[8] = type: cell-based; conditions: 24 h, serum-free medium, MTT, 37 °C, 5% CO2; mean ± SD; read-out: IC50 (µM) A459
Procedure: as §3, §4

RD = type: cell-based; conditions: 24 h, serum-free medium, MTT, 37 °C, 5% CO2; mean ± SD
Procedure: as §3, §4

SH-SY5Y = type: cell-based; conditions: 24 h, serum-free medium, MTT, 37 °C, 5% CO2; mean ± SD
Procedure: as §3, §4

HEK-293 = experiment: MTT cytotoxicity on normal cells; type: cell-based, human; conditions: 25 µM (highest tested concentration), 24 h, serum-free medium
Procedure: as §3, §4

B. subtilis [9] = type: cell-based, Bacillus subtilis (ATCC, 11774); conditions: 20 µl of wells without growth on agar, 18 h, 37 °C
MRSA [10] = type: cell-based, Methicillin-resistant Staphylococcus aureus (ATCC, BAA-41); conditions: 20 µl of wells without growth on agar, 18 h, 37 °C
S. enterica [11] = type: cell-based, Salmonella enterica (ATCC, 14028); conditions: 20 µl of wells without growth on agar, 18 h, 37 °C
P. aeruginosa [12] = type: cell-based, Pseudomonas aeruginosa (ATCC, 10145); conditions: 20 µl of wells without growth on agar, 18 h, 37 °C
C. albicans [13] = type: cell-based, Candida albicans (TIMM, 1768); conditions: 20 µl of wells without growth on Sabouraud 4% Dextrose Agar, 18 h, 37 °C
HCT 116 = type: cell-based, human; conditions: 24 h, serum-free medium, MTT, 37 °C, 5% CO2; mean ± SD
Procedure: as §3, §4

human RBCs = experiment: Hemolytic assay; type: cell-based; conditions: 2% RBCs in PBS, 2 h, 37 °C, supernatant at 450 nm, 0.1% TritonX-100 = maximum; highest tested concentration 100 µM
Procedure: All methods were carried out in accordance with the Declaration of Helsinki, and the Research Ethics Committee approved all experimental protocols at Sunway University (approval no. PGSUREC2020/005). A human blood sample was collected from a healthy person for this assay upon obtaining informed consent. The fresh blood sample was centrifuged at 3700 g for 5 min at RT. The supernatant (serum) was removed and red blood cells (RBCs) were washed three times with 1X PBS and diluted to a final concentration of 2% (PBS—137 mM NaCl, 2.7 mM KCl, 10 mM Na2HPO4, 1.76 mM KH2PO4). Cells were stored at 4 °C, and used within 5 h.
The hemolytic activities of the identified cryptides were evaluated as previously described. The prepared RBCs were treated with different peptide concentrations for 2 h at 37 °C. The treated RBCs were centrifuged, under the same centrifugation conditions, and the supernatants were transferred to a 96-well plate and measured at 450 nm.

Row | Compound | MIC (µM) B. subtilis (B. subtilis [1]) | MIC (µM) MRSA (MRSA [2]) | MIC (µM) S. enterica (S. enterica [3]) | MIC (µM) P. aeruginosa (P. aeruginosa [4]) | MIC (µM) C. albicans (C. albicans [5]) | Minimal biofilm eradication concentration (MBEC) S. enterica [7] | IC50 (Caco-2) | IC50 (HeLa) | IC50 [8] | IC50 (RD) | IC50 (SH-SY5Y) | Cell death of HEK-293 (HEK-293) | MBC (µM) B. subtilis (B. subtilis [9]) | MBC (µM) MRSA (MRSA [10]) | MBC (µM) S. enterica (S. enterica [11]) | MBC (µM) P. aeruginosa (P. aeruginosa [12]) | MFC (µM) C. albicans (C. albicans [13]) | further results
1 | CC(C)[C@H](NC(=O)[C@H](CO)NC(=O)[C@H](Cc1ccccc1)NC(=O)[C@H](CC(N)=O)NC(=O)[C@H](CS)NC(=O)[C@H](Cc1ccc(O)cc1)NC(=O)[C@H](Cc1c[nH]cn1)NC(=O)CN)C(=O)N[C@H](C(=O)N1CCC[C@H]1C(=O)N[C@@H](CCCCN)C(=O)N[C@@H](Cc1ccccc1)C(=O)N[C@@H](CCCCN)C(=O)N[C@@H](CCCNC(=N)N)C(=O)N[C@@H](Cc1c[nH]c2ccccc12)C(=O)O)[C@@H](C)O [AD8] (H-GHYCNFSVTPKFKRW-OH) | 0.78 µM (≈ 1.46 µg/mL) | 3.12 µM (≈ 5.83 µg/mL) | 0.78 µM (≈ 1.46 µg/mL) | 25 µM (≈ 46.8 µg/mL) | 6.25 µM (≈ 11.7 µg/mL) | 200 µM | 4.4 ± 0.5 µM | 42.6 ± 0.3 µM | 7.3 ± 0.5 µM | 27.2 ± 0.4 µM | 23.3 ± 0.7 µM | less than 10% | 0.78 µM (≈ 1.46 µg/mL) | 12.5 µM (≈ 23.4 µg/mL) | 0.78 µM (≈ 1.46 µg/mL) | 50 µM (≈ 93.5 µg/mL) | 6.25 µM (≈ 11.7 µg/mL) | MBC values, range against the different tested pathogens [6]: 0.78 ~ 50 µM; MIC values, range against the different tested pathogens [6]: 0.78 ~ 25 µM
2 | CC(C)C[C@H](NC(=O)[C@H](C)NC(=O)[C@H](Cc1ccccc1)NC(=O)[C@@H](N)Cc1ccccc1)C(=O)N[C@@H](CCC(N)=O)C(=O)N[C@@H](CS)C(=O)N[C@@H](C)C(=O)N[C@@H](C)C(=O)N[C@@H](CCCCN)C(=O)N[C@H](C(=O)N[C@@H](CCCNC(=N)N)C(=O)N[C@H](C(=O)N[C@@H](CCCNC(=N)N)C(=O)N[C@@H](CCCNC(=N)N)C(=O)N[C@H](C(=O)O)C(C)C)[C@@H](C)O)[C@@H](C)O [AD12] (H-FFALQCAAKTRTRRV-OH) | 0.78 µM (≈ 1.38 µg/mL) | 6.25 µM (≈ 11.1 µg/mL) | 0.78 µM (≈ 1.38 µg/mL) | 12.5 µM (≈ 22.1 µg/mL) | 12.5 µM (≈ 22.1 µg/mL) | 200 µM | 4.35 µM | 8.5 ± 0.5 µM | 9.4 ± 1 µM | 159 µM |  | less than 10% | 0.78 µM (≈ 1.38 µg/mL) | 25 µM (≈ 44.2 µg/mL) | 0.78 µM (≈ 1.38 µg/mL) | 25 µM (≈ 44.2 µg/mL) | 12.5 µM (≈ 22.1 µg/mL) | 
3 | N.N.[Cl][Pt][Cl] [Cisplatin, reference compound] |  |  |  |  |  |  |  | 63.6 ± 0.4 µM | 15.3 ± 0.6 µM | 74 ± 1.2 µM | 54.4 ± 0.8 µM |  |  |  |  |  |  | IC50 (µM) HCT 116 (HCT 116): resistant; Hemolysis of human RBCs at 100 µM (human RBCs): less than 10%
